Legend:
Format in all cases: toxicity, cell-based
[1] = tested on: HEK-293T; test: Incucyte cell viability with HEK293T; conditions: human, 10 µM, compound concentration 10 uM
[2] = tested on: Fibroblast; test: Incucyte cell viability with human fibroblast; conditions: 10 µM, compound concentration 10 uM
[3] = tested on: U2OS; test: Incucyte cell viability with U2OS; conditions: human, 10 µM, compound concentration 10 uM
Also: unitless GR value; below 1 slowed growth and below 0 cell loss.

Row | Compound | Growth Rate ([1]; 6 h, replicate number 1) | Growth Rate ([1]; 6 h, replicate number 2) | Growth Rate ([1]; 12 h, replicate number 1) | Growth Rate ([1]; 12 h, replicate number 2) | Growth Rate ([1]; 18 h, replicate number 2) | Growth Rate ([1]; 24 h, replicate number 1) | Growth Rate ([1]; 24 h, replicate number 2) | Growth Rate ([2]; 6 h, replicate number 1) | Growth Rate ([2]; 6 h, replicate number 2) | Growth Rate ([2]; 12 h, replicate number 1) | Growth Rate ([2]; 12 h, replicate number 2) | Growth Rate ([2]; 18 h, replicate number 1) | Growth Rate ([2]; 18 h, replicate number 2) | Growth Rate ([2]; 24 h, replicate number 1) | Growth Rate ([2]; 24 h, replicate number 2) | Growth Rate ([3]; 6 h, replicate number 1) | Growth Rate ([3]; 12 h, replicate number 1) | Growth Rate ([3]; 18 h, replicate number 1) | Growth Rate ([3]; 18 h, replicate number 2) | Growth Rate ([3]; 24 h, replicate number 1) | further results
1 | NCC1CCC(CNc2nc(NCc3ccccc3OC(F)(F)F)ncc2[N+](=O)[O-])CC1 (configuration not stated) | -0.6 | -0.49 | -0.36 | -0.27 | -0.01 | 0.09 | 0.1 | 0.48 | 0.74 | 0.28 | 0.57 | -0.03 | 0.35 | 0.04 | 0.35 | 0.45 | 0.44 | 0.69 | 0.63 | 0.84 | Growth Rate ([1]; 18 h, replicate number 1): -0.04; Growth Rate ([2]; 0 h, replicate number 1): -0.85; Growth Rate ([3]; 6 h, replicate number 2): 0.71; Growth Rate ([3]; 12 h, replicate number 2): 0.59; Growth Rate ([3]; 24 h, replicate number 2): 0.59
2 | O=C(O)[C@]1(Cc2cccc(Nc3nccs3)n2)CC[C@@H](Oc2cccc(Cl)c2F)CC1 [MK-5108] | 0.9 | 0.73 | 0.39 | 0.16 | 0.35 | 0.63 | 0.61 |  |  | 0.18 | 0.85 | 0.17 | 0.26 | 0.32 | 0.2 | 0.98 | 0.56 | 0.21 | 0.25 | 0.37 | Growth Rate ([1]; 0 h, replicate number 1): 0.43; Growth Rate ([1]; 18 h, replicate number 1): 0.47; Growth Rate ([2]; 0 h, replicate number 2): -1; Growth Rate ([3]; 6 h, replicate number 2): 0.59; Growth Rate ([3]; 12 h, replicate number 2): 0.14; Growth Rate ([3]; 24 h, replicate number 2): 0.47
3 | O=C1NC(=Nc2c(Cl)cccc2Cl)S/C1=C\c1ccc2nccnc2c1 | 0.02 |  | 0.48 | 0.26 | 0.35 | 0.52 | 0.45 |  | 0.92 |  | 0.96 |  |  |  |  | 0.4 |  | 0.81 | 0.64 | 0.8 | Growth Rate ([1]; 0 h, replicate number 1): 0.08; Growth Rate ([1]; 0 h, replicate number 2): 0.44; Growth Rate ([1]; 18 h, replicate number 1): 0.44; Growth Rate ([2]; 0 h, replicate number 1): 0.49; Growth Rate ([3]; 0 h, replicate number 1): 0.01; Growth Rate ([3]; 6 h, replicate number 2): 0.31; Growth Rate ([3]; 12 h, replicate number 2): 0.38; Growth Rate ([3]; 24 h, replicate number 2): 0.75
4 | C[C@@H](CN1CCC(Cc2ccccc2)CC1)[C@@H](O)c1ccc(O)cc1 |  | 0.36 |  | 0.86 |  |  |  | -0.49 | -0.45 | -0.59 | 0.48 |  | 0.53 | 0.78 | 0.68 | 0.07 | 0.85 | 0.98 | 0.99 | 0.96 | Growth Rate ([1]; 0 h, replicate number 2): 0.98; Growth Rate ([3]; 0 h, replicate number 1): -0.54; Growth Rate ([3]; 0 h, replicate number 2): -0.81
5 | CCC(=O)N[C@H]1CC[C@@H](C(=O)N(C)c2ccc(-c3nc4ccccc4o3)cc2)C1 [BI 99179] | 0.1 | 0.11 | 0.1 | 0.26 | 0.51 | 0.51 | 0.69 | 0.53 | 0.58 | 0.5 |  | 0.66 | 0.98 | 0.79 |  | 0.68 | 0.89 | 0.98 | 0.87 | 0.86 | Growth Rate ([1]; 18 h, replicate number 1): 0.31; Growth Rate ([2]; 0 h, replicate number 2): -0.49; Growth Rate ([3]; 0 h, replicate number 1): 0.2; Growth Rate ([3]; 12 h, replicate number 2): 0.65; Growth Rate ([3]; 24 h, replicate number 2): 0.96
6 | Clc1cccc(-n2nnnc2NCc2ccccc2Oc2ccccn2)c1Cl |  |  |  |  |  |  |  |  | -0.47 |  | 0.89 | 0.74 |  | 0 |  |  | 0.9 |  | 0.96 |  | Growth Rate ([1]; 0 h, replicate number 1): 0.73; Growth Rate ([1]; 0 h, replicate number 2): 0.49; Growth Rate ([2]; 0 h, replicate number 1): 0.89; Growth Rate ([2]; 0 h, replicate number 2): 0.26; Growth Rate ([3]; 0 h, replicate number 1): -0.04; Growth Rate ([3]; 0 h, replicate number 2): 0.95; Growth Rate ([3]; 6 h, replicate number 2): 0.99
7 | COc1ccc(CC(=O)NC(N/C(=N/C#N)Nc2cccc3ncccc23)C(C)(C)C)cc1OC (configuration not stated) |  | 0.89 |  |  | 0.99 |  |  | -0.31 | -1 | -1 | 0.57 | 0.6 | 0.81 |  | 0.59 | 0.08 | 0.96 | 0.98 | 0.78 |  | Growth Rate ([3]; 0 h, replicate number 1): 0.85; Growth Rate ([3]; 6 h, replicate number 2): 0.31; Growth Rate ([3]; 12 h, replicate number 2): 0.85; Growth Rate ([3]; 24 h, replicate number 2): 0.82
8 | O=C(Nc1c[nH]nc1-c1nc2cc(CN3CCOCC3)ccc2[nH]1)NC1CC1 [AT-9283] | -0.72 | -0.8 | -0.57 | -0.59 | -0.43 | -0.38 | -0.3 |  |  |  |  | 0.66 | 0.81 | 0.09 | 0.43 |  | 0.31 | -0.05 | 0.14 | -0.18 | Growth Rate ([1]; 18 h, replicate number 1): -0.46; Growth Rate ([3]; 0 h, replicate number 1): -1; Growth Rate ([3]; 0 h, replicate number 2): 0.73; Growth Rate ([3]; 12 h, replicate number 2): 0.78; Growth Rate ([3]; 24 h, replicate number 2): -0.09
9 | C[C@@H](CO)CCC[C@@H](C)[C@H]1CC[C@H]2[C@@H]3CC=C4C[C@@H](O)CC[C@]4(C)[C@H]3CC[C@]12C |  |  |  | 0.79 |  |  | 1 | 0.92 | 0.36 | 0.57 | 0.22 | 0.33 | 0.27 | 0.6 | 0.25 |  | 0.84 | 0.88 |  |  | Growth Rate ([1]; 0 h, replicate number 1): 0.34; Growth Rate ([2]; 0 h, replicate number 1): 0.73; Growth Rate ([3]; 6 h, replicate number 2): 0.82
10 | Cl.O=C(O)CCCN1CCC[C@H]1COc1ccc(Oc2ccc(Cl)cc2)cc1 | 0.64 | -0.09 | 0.9 | 0.12 | 0.37 | 0.98 | 0.53 | 0.91 |  |  | 0.93 | 0.87 |  |  |  | 0.84 |  |  |  | 0.94 | Growth Rate ([2]; 0 h, replicate number 1): -1

Reference: ChEMBL document CHEMBL5303304, “EUbOPEN Chemogenomics Library - IncuCyte” (2023)
